Legend:
transthyretin [1] = biological target: T1, transthyretin (Homo sapiens, UniProt P02766); assay: Stopped flow analysis of the kinetics of binding by transthyretin; settings: 2 μM protein, 10 μM ligand, PBS pH 7.4, 5% DMSO, 20° C.
T1 construct: Native tetrameric transthyretin was purified from fractionated human plasma; from tissue; host or cells: human plasma
Method: 3.2.2 Stopped flow analysis of the kinetics of 4ajm15 binding by transthyretin. The kinetics of transthyretin binding to 4ajm15 were evaluated with a Bio-Logic SFM-300 stopped flow device coupled to a fluorescence detection system (Claix, France) using a cell path length of 1.5 mm. The excitation wavelength was 280 nm and emission was measured at wavelengths greater than 320 nm using a cut off filter. The experiments were performed at 20° C. in PBS pH 7.4 containing 5% DMSO with a final protein concentration of 2 μM in the presence of 10 μM 4ajm15. The kinetic traces fit well to a single-exponential function with a time constant of 2.17 s (±0.02 s). Transthyretin thus binds 4ajm15 very rapidly at physiological pH with the plateau of the quenching reaction being reached after only ˜11 sec.

[2] = biological target: T2, thyroxine binding globulin (TBG) (Homo sapiens, UniProt P05543); assay: T4 displacement from T4 binding proteins in whole serum (agarose gel electrophoresis, densitometry); settings: increasing concentrations of ligand
T2 construct: from tissue; host or cells: whole serum
T2 sequence (P05543 21-415): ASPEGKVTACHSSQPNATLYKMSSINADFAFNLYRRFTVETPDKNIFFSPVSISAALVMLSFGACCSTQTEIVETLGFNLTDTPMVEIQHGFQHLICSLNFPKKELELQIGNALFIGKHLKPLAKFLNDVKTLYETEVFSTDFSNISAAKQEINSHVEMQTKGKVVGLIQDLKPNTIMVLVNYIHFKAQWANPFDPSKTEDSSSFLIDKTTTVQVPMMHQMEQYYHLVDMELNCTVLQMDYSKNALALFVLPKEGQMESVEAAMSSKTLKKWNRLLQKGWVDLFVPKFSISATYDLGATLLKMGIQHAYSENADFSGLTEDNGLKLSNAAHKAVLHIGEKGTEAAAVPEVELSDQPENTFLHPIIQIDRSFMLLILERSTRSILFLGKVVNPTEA
From the text: 3.2.3.3. […] After the electrophoresis, the proteins were transferred by capillary diffusion to a nitrocellulose membrane and subjected to phosphor imaging (Typhoon 8600; […], Amersham Biosciences). The two known T4-binding proteins, transthyretin and thyroxine binding globulin (TBG), were distinctly visualized, while albumin binding appears as a radioactive smear between them.

V30M transthyretin = biological target: T3, V30M transthyretin (Homo sapiens, UniProt P02766, V50M); assay: Mass spectrometric analysis of subunit exchange; assay type: biochemical; settings: 2-fold molar excess of ligand, data not shown
T3 construct: made in house
Method: 4.2 Mass spectrometric analysis of subunit exchange. Recombinant wild type, L55P and V30M transthyretin variants were biosynthetically labelled with isotopes [^15N] and [^15N, ^13C] as previously described (Keetch C A et al, 2005). Immediately prior to analysis, proteins were buffer exchanged into 20 mM ammonium acetate, pH 7.0 using Micro Biospin columns (Bio-Rad, UK). The subunit composition of transthyretin was monitored as a function of time by incubating an equimolar solution (4.4 μM) of [^15N] and [^15N, ^13C] labelled proteins in the presence of 2-fold molar excess of 4ajm15 in DMSO or 2.5% DMSO alone as a control. Each experiment was carried out in triplicate at room temperature and at 4° C. as well, since it is known that subunit exchange is accelerated at low temperatures. Nanoflow ESMS was performed on a QToF2 instrument (Waters/Micromass UK, Ltd.) modified for high mass operation (Sobott et al, (2002)) and calibrated externally using caesium iodide (100 mg/ml). Each solution, 1.5 μl, was electrosprayed from gold coated borosilicate capillaries prepared in-house as described (Nettleton E J, et al, 1998). […]

transthyretin [3] = biological target: T1, transthyretin; assay: Isothermal titration calorimetry of transthyretin-ligand binding; settings: ITC, Tris-NaCl pH 8.0, 2% DMSO, 37° C.
Method: 3.3.3 Isothermal titration calorimetry (itc) of transthyretin-mds84 ligand binding: Thermodynamic parameters of transthyretin-mds84 ligand binding were measured directly by isothermal titration calorimetry (VP-ITC, MicroCal LLC, Milton Keynes, UK). An initial injection of 1 μl of mds84 at 0.348 mM was made into transthyretin at a final concentration of 0.029 mM tetramer, followed, at 240 sec intervals, by 35 successive 8 μl injections. The diluent was Tris-NaCl pH 8.0 with 2% (v/v) DMSO. The sample cell was stirred at 310 rpm and cell contents were maintained at 37° C. After correction for volume displacement and plotting against the molar ratio of injected ligand to transthyretin tetramer, integration of the raw thermogram (FIG. 5, upper graph) yielded a binding isotherm (FIG. 5, lower graph) that was best fitted (determined by χ^2 analysis) to a model with a single set of identical sites by non-linear least squares analysis in ORIGIN v7.0 (MicroCal LLC).

[4] = biological target: L55P variant transthyretin (Homo sapiens, UniProt P02766, L75P); assay: Differential scanning calorimetry of transthyretin with ligand; assay type: binding; settings: five fold molar excess of ligand

Structure (SMILES)	time constant of binding (single-exponential fit) (transthyretin [1])	time to plateau of the quenching reaction (transthyretin [1])	effect on binding of T4 by TBG [2]	subunit exchange of V30M transthyretin (V30M transthyretin)	enthalpy (ΔH) (transthyretin [3])	Kd (transthyretin [3]; 0.029 mM tetramer, read-out: dissociation constant (Kd))	Tm of L55P variant transthyretin with the ligand [4]	increase in Tm of L55P variant transthyretin [4]
O=C(O)c1ccccc1Nc1cc(Cl)c(OCCCCCCCCCCCOc2c(Cl)cc(Nc3ccccc3C(=O)O)cc2Cl)c(Cl)c1 [4ajm15, 2,2′-(4,4′-(undecane-1,11-diylbis(oxy))bis(3,5-dichloro-4,1-phenylene))bis(azanediyl)dibenzoic acid]	2.17 s	~11 s	did not affect	Exactly the same effect	–	–	–	–
O=C(O)c1ccccc1Nc1cc(Cl)c(OCCCCCCCOc2c(Cl)cc(Nc3ccccc3C(=O)O)cc2Cl)c(Cl)c1 [mds84, 2,2′-(4,4′-(heptane-1,7-diylbis(oxy))bis(3,5-dichloro-4,1-phenylene))bis(azanediyl)dibenzoic acid]	–	–	–	–	-7.95 kcal/mol	505 nM	98.3 °C	5.9 °C

Reference: patent publication US8236984B2, “Compound and use thereof in the treatment of amyloidosis” (Pentraxin Therapeutics Ltd., priority 2007, dated 2012)
